Reference: US11883387B2, “PqsR inverse agonists” (HELMHOLTZ-ZENTRUM FÜR INFEKTIONSFORSCHUNG GMBH, priority 2018, dated 2024)

Assays:
PqsR = PqsR (Pseudomonas aeruginosa, UniProt Q9I4X0); assay: E. coli based β-galactosidase reporter gene assay (PqsR inverse agonistic activity); format: cell-based; set-up: expressed in transfected cells; host or cells: Escherichia coli DH5α
Experimental: Inhibition of pqsR-dependent gene expression of test compounds was determined in an E. coli based β-galactosidase reporter gene assay.[19] Escherichia coli DH5α was transfected with pEAL08-2 plasmid encoding pqsR under control of promoter tac and β-galactosidase reporter gene lacZ under control of promoter pqsA. Antagonistic effects of compounds were evaluated in the presence of/in competition to 50 nM PQS. A positive control was used to ensure the reliability of individual assays. First, PQS was diluted in methanol and added to the wells of a glass coated 96-deep-well plate, and the solvent was evaporated. Then, compounds were added in 5 μL DMSO to final concentrations of 0.001-10 μM. Overnight cultures of E. coli DH5a×pEAL08-2 were diluted 1:100 in LB medium with ampicillin (50 μg/ml) and incubated at 37° C. with shaking until it reached an OD600 of 0.2. Finally, 995 μL of culture was added to each well and the p-galactosidase activity was determined by ortho-nitrophenyl-p-galactoside conversion in permeabilized cells after a 2.5 h incubation period (37° C., 180 rpm). OD600, OD420, and OD550 were measured using POLARstar Omega (BMG Labtech, Ortenberg, Germany), and the activity was expressed as ratio of the slope of β-galactosidase activity between basal control (no PQS) and solvent control. IC50 values of antagonists were determined by variation of the concentration of the test compounds.

[1] = Kinetic Turbidimetric Aqueous Solubility at room temperature for 5 min; format: physicochemical; settings: PBS buffer, kinetic from dmso stock, 2% DMSO
Experimental: Kinetic Turbidimetric Aqueous Solubility at room temperature for 5 min. Test compound was diluted in PBS buffer to give a range of concentrations (typically 0.4, 2, 4, 20, 40, 100, and 200 μM, final DMSO concentration 2%) and incubated at room temperature for 5 min. Absorbance was measured at a wavelength of 620 nm and the solubility was estimated from the concentration of test compound that produces an increase in absorbance above the vehicle control (i.e., […]). Data was analyzed by fitting a four parameter sigmoidal function to the measured and normalized absorbances and AUC calculation providing access to Log S (decadic logarithm of the solubility).

[2] = tested on: P. aeruginosa pyocyanin production; assay: Pyocyanin assay; format: cell-based, P. aeruginosa PA14; settings: Pseudomonas aeruginosa, PA14, 16 h, read-out: IC50-value towards pyocyanin production, PA14 in PPGAS medium, 16 h
Experimental: Inhibition of P. aeruginosa pyocyanin production by compounds was determined photometrically as described before.[20] In short, an overnight culture of PA14 in PPGAS medium was washed, diluted in medium to a start OD600 of 0.02, and incubated for 16 h (37° C., 200 rpm, relative humidity 75%) in the presence of test compounds. Then, cultures were extracted with chloroform and re-extracted with 0.2 M HCl. Protonated red colored pyocyanin was determined by measuring OD520 and normalizing to OD600.

PqsR, sequence (Q9I4X0 whole entry): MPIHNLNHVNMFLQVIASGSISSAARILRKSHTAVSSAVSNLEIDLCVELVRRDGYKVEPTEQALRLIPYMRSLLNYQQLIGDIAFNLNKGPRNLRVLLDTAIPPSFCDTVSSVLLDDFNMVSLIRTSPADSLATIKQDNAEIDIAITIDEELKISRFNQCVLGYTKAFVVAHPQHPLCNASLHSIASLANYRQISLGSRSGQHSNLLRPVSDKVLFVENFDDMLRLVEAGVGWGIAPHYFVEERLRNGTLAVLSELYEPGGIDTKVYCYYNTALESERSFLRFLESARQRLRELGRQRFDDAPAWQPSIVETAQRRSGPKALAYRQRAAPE

Row | SMILES | IC50 (PqsR) [nM] | solubility at 5 min [1] [µM] | IC50 [2] [nM]
1 | FC(F)(F)c1cc(OCc2nc3cc(Cl)c(Cl)cc3[nH]2)ccn1 [Compound 120, 5,6-Dichloro-2-(((2-(trifluoromethyl)pyridin-4-yl)oxy)methyl)-1H-benzo[d]imidazole] | 251 to 1000 | > 50 | 
2 | CC(C)Oc1ccc(-n2cc(CNc3ccnc(C(F)(F)F)c3)nn2)cc1 [Compound 035, N-((1-(4-Isopropoxyphenyl)-1H-1,2,3-triazol-4-yl)methyl)-2-(trifluoromethyl)pyridin-4-amine] | ≤ 50 | ≥ 100 | 
3 | COc1ncc(-c2ccc(CNc3ccnc(C(F)(F)F)c3)nc2)cc1Cl [Compound 101, N-((5′-Chloro-6′-methoxy-[3,3′-bipyridin]-6-yl)methyl)-2-(trifluoromethyl)pyridin-4-amine] | 51 to 250 | > 25 | 
4 | FC(F)(F)c1cc(SCc2ccc(-c3ccc(Cl)cc3)cn2)ccn1 [Compound 111, 4-(((5-(4-Chlorophenyl)pyridin-2-yl)methyl)thio)-2-(trifluoromethyl)pyridine] |  | > 10 | 
5 | FC(F)(F)c1cc(NCc2cn(-c3ccc(Oc4cccnc4)c(Cl)c3)nn2)ccn1 [Compound 031, N-((1-(3-Chloro-4-(pyridin-3-yloxy)phenyl)-1H-1,2,3-triazol-4-yl)methyl)-2-(trifluoromethyl)pyridin-4-amine] |  | > 25 | 
6 | CSc1ccc(-n2cc(CNc3ccnc(C(F)(F)F)c3)nn2)cc1Cl [Compound 038, N-((1-(3-Chloro-4-(methylthio)phenyl)-1H-1,2,3-triazol-4-yl)methyl)-2-(trifluoromethyl)pyridin-4-amine] | ≤ 50 | > 25 | 
7 | FC(F)(F)c1cc(NCc2cn(-c3ccc(Oc4cccnc4)cc3)nn2)ccn1 [Compound 033, N-((1-(4-(Pyridin-3-yloxy)phenyl)-1H-1,2,3-triazol-4-yl)methyl)-2-(trifluoromethyl)pyridin-4-amine] | ≤ 50 | > 25 | 
8 | COc1ccc(-n2cc(CNc3ccnc(C(F)(F)F)c3)nn2)cc1 [Compound 006, N-((1-(4-Methoxyphenyl)-1H-1,2,3-triazol-4-yl)methyl)-2-(trifluoromethyl)pyridin-4-amine] | 51 to 250 |  | 1000 to 5000
9 | FC(F)(F)c1cc(SCc2cn(-c3cccc(Cl)c3)nn2)ccn1 [Compound 056, 4-(((1-(3-Chlorophenyl)-1H-1,2,3-triazol-4-yl)methyl)thio)-2-(trifluoromethyl)pyridine] | 251 to 1000 | > 25 | 
10 | FC(F)(F)c1cc(NCc2cn(-c3ccc(-n4ncc5ccncc54)cc3)nn2)ccn1 [Compound 148, N-((1-(4-(1H-pyrazolo[3,4-c]pyridin-1-yl)phenyl)-1H-1,2,3-triazol-4-yl)methyl)-2-(trifluoromethyl)pyridin-4-amine] | ≤ 50 |  | 251 to 1000
11 | FC(F)(F)c1cncc(NCc2cn(-c3ccc(Oc4ccccc4)cc3)nn2)c1 [Compound 021, N-((1-(4-phenoxyphenyl)-1H-1,2,3-triazol-4-yl)methyl)-5-(trifluoromethyl)pyridin-3-amine] | ≤ 50 |  | 1000 to 5000
12 | FC(F)(F)c1nccc(SCc2cn(-c3ccc(Oc4ccccc4)cc3)nn2)n1 [Compound 061, 4-(((1-(4-phenoxyphenyl)-1H-1,2,3-triazol-4-yl)methyl)thio)-2-(trifluoromethyl)pyrimidine] | ≤ 50 |  | 251 to 1000
13 | COc1ccc(-n2cc(CNc3ccnc(C(F)(F)F)c3)nn2)cc1F [Compound 026, N-((1-(3-Fluoro-4-methoxyphenyl)-1H-1,2,3-triazol-4-yl)methyl)-2-(trifluoromethyl)pyridin-4amine] | ≤ 50 |  | 1000 to 5000
14 | Fc1ccccc1Oc1ccc(-n2cc(CNc3cc(Cl)nc(C(F)(F)F)c3)nn2)cc1 [Compound 143, 2-chloro-N-((1-(4-(2-fluorophenoxy)phenyl)-1H-1,2,3-triazol-4-yl)methyl)-6-(trifluoromethyl)pyridin-4-amine] | ≤ 50 |  | ≤ 250
15 | COc1ncc(-c2nc(CNc3ccnc(C(F)(F)F)c3)cs2)cc1Cl [Compound 084, N-((2-(5-Chloro-6-methoxypyridin-3-yl)thiazol-4-yl)methyl)-2-(trifluoromethyl)pyridin-4-amine] | 51 to 250 | > 25 | 
16 | COc1ccc(-c2ncc(CNc3cc(N)nc(C(F)(F)F)n3)s2)cc1Cl [Compound 070, N^4-((2-(3-chloro-4-methoxyphenyl)thiazol-5-yl)methyl)-2-(trifluoromethyl)-pyrimidine-4,6-diamine] |  | > 25 | 
17 | CC(C)Oc1ccc(-c2ncc(CNc3cc(Cl)nc(Cl)c3)s2)cc1 [Compound 162, 2,6-Dichloro-N-((2-(4-isopropoxyphenyl)thiazol-5-yl)methyl)pyridin-4-amine] | ≤ 50 |  | ≤ 250
18 | FC(F)(F)c1cc(NCc2cn(-c3ccc(Oc4ccccc4)c(Cl)c3)nn2)ccn1 [Compound 053, N-((1-(3-Chloro-4-phenoxyphenyl)-1H-1,2,3-triazol-4-yl)methyl)-2-(trifluoromethyl)pyridin-4-amine] | ≤ 50 |  | ≤ 250
19 | CC(C)Oc1ccc(-n2cc(CNc3cc(C#N)nc(C(F)(F)F)c3)nn2)cc1Cl [Compound 156, 4-(((1-(3-chloro-4-isopropoxyphenyl)-1H-1,2,3-triazol-4-yl)methyl)amino)-6-(trifluoromethyl)picolinonitrile] | ≤ 50 |  | 251 to 1000
20 | CC(C)Oc1ccc(-n2cc(CNc3cc(Cl)nc(Cl)c3)nn2)cc1Cl [Compound 158, 2,6-dichloro-N-((1-(3-chloro-4-isopropoxyphenyl)-1H-1,2,3-triazol-4-yl)methyl)pyridin-4-amine] | ≤ 50 |  | ≤ 250
21 | Nc1cc(SCc2cn(-c3ccc(Oc4ccccc4)cc3)nn2)nc(C(F)(F)F)n1 [Compound 065, 6-(((1-(4-phenoxyphenyl)-1H-1,2,3-triazol-4-yl)methyl)thio)-2-(trifluoromethyl)pyrimidin-4-amine] | ≤ 50 |  | ≤ 250
22 | Clc1cc(SCc2nc3cc(Oc4ccccc4)ccc3[nH]2)ccn1 [Compound 178, 2-(((2-chloropyridin-4-yl)thio)methyl)-5-phenoxy-1H-benzo[d]imidazole] | 51 to 250 |  | 251 to 1000
23 | FC(F)(F)c1cc(NCc2cn(-c3ccc(Cc4ccncc4)cc3)nn2)ccn1 [Compound 025, N-((1-(4-(Pyridin-4-ylmethyl)phenyl)-1H-1,2,3-triazol-4-yl)methyl)-2-(trifluoromethyl)pyridin-4-amine] | ≤ 50 |  | 251 to 1000
24 | FC(F)(F)c1cc(NCc2cn(-c3ccc(Oc4cccnc4)cc3)nn2)cc(Cl)n1 [Compound 141, 2-chloro-N-((1-(4-(pyridin-3-yloxy)phenyl)-1H-1,2,3-triazol-4-yl)methyl)-6-(trifluoromethyl)pyridin-4-amine] | ≤ 50 |  | ≤ 250
25 | FC(F)(F)c1cc(NCc2cn(-c3ccc(Cl)c(Cl)c3)nn2)ccn1 [Compound 005, N-((1-(3,4-Dichlorophenyl)-1H-1,2,3-triazol-4-yl)methyl)-2-(trifluoromethyl)pyridin-4-amine] | ≤ 50 |  | 251 to 1000
26 | FC(F)(F)c1cc(NCc2cn(-c3ccc(OC4COC4)c(Cl)c3)nn2)ccn1 [Compound 152, N-((1-(3-chloro-4-(oxetan-3-yloxy)phenyl)-1H-1,2,3-triazol-4-yl)methyl)-2-(trifluoromethyl)pyridin-4-amine] | ≤ 50 |  | 1000 to 5000
27 | CC(C)Oc1ccc(-c2ncc(CNc3cc(Cl)nc(C(F)(F)F)c3)s2)cc1Cl [Compound 094, 2-Chloro-N-((2-(3-chloro-4-isopropoxyphenyl)thiazol-5-yl)methyl)-6-(trifluoromethyl)pyridin-4-amine] | ≤ 50 |  | ≤ 250
28 | CC(C)Oc1ccc(-n2cc(CNc3cc(C#N)nc(C#N)c3)nn2)cc1Cl [Compound 159, 4-(((1-(3-chloro-4-isopropoxyphenyl)-1H-1,2,3-triazol-4-yl)methyl)amino)pyridine-2,6-dicarbonitrile] | ≤ 50 |  | ≤ 250
